The target in assay [1] is T1, TASK-3 WT channel (Cavia porcellus, UniProt Q9JL58). The conditions noted are these: +80 mV, HEK-293 cells.
Assay [2] concerns the target TASK-3/2loop2 (cap-less TASK-3 channel) (Cavia porcellus, UniProt Q9JL58). Conditions: symmetrical K+ conditions, HEK-293 cells.
In another assay the target is TASK-3/2loop2/Y99A (Cavia porcellus, UniProt Q9JL58). The conditions noted are these: HEK-293 cells.
A further assay addresses TASK-3/2loop2/Y205A (Cavia porcellus, UniProt Q9JL58, Y205A, form not given). The conditions noted are these: HEK-293 cells.
The target of another assay is TASK-3/2loop2/Y99A/Y205A (Cavia porcellus, UniProt Q9JL58, Y205A, form not given). The conditions noted are these: HEK-293 cells; similar to TASK-3 WT.
Another assay deals with Kv2.1 channel (Rattus norvegicus, UniProt P15387). Briefly: cell-based. The conditions noted are these: HEK293, read-out: inhibition of Kv2.1 currents.
The target of assay [3] is T1, TASK-3 WT channel. Briefly: cell-based.

T1 sequence (Q9JL58 whole entry): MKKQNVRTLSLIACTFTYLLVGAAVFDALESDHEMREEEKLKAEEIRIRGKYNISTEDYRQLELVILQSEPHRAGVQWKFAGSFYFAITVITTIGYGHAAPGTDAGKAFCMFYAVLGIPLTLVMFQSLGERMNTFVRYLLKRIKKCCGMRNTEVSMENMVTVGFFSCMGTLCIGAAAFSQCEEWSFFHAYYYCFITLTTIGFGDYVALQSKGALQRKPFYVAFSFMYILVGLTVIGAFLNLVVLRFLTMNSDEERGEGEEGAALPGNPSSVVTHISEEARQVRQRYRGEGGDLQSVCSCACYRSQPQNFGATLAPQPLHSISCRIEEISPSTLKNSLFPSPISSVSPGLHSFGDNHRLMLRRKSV
Chain of TASK-3/2loop2/Y205A (Q9JL58 with tags, fused parts or gaps Y205A, form open): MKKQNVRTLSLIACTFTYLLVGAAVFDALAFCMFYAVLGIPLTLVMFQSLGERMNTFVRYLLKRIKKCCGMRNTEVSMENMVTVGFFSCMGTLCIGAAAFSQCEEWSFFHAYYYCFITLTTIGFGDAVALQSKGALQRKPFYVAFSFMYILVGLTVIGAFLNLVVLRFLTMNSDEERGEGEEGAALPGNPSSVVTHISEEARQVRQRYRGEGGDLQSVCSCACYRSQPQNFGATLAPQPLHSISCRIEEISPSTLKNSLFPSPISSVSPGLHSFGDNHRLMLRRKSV
Chain of TASK-3/2loop2/Y99A (Q9JL58 with tags, fused parts or gaps): as the sequence (Q9JL58 with tags, fused parts or gaps Y205A, form open) above, with A127Y counted along it
Chain of TASK-3/2loop2 (cap-less TASK-3 channel) (Q9JL58 with tags, fused parts or gaps): as the sequence (Q9JL58 with tags, fused parts or gaps Y205A, form open) above, with A127Y counted along it
Chain of TASK-3/2loop2/Y99A/Y205A (Q9JL58 with tags, fused parts or gaps Y205A, form open): as the sequence (Q9JL58 with tags, fused parts or gaps Y205A, form open) above
Chain of Kv2.1 channel (P15387 whole entry): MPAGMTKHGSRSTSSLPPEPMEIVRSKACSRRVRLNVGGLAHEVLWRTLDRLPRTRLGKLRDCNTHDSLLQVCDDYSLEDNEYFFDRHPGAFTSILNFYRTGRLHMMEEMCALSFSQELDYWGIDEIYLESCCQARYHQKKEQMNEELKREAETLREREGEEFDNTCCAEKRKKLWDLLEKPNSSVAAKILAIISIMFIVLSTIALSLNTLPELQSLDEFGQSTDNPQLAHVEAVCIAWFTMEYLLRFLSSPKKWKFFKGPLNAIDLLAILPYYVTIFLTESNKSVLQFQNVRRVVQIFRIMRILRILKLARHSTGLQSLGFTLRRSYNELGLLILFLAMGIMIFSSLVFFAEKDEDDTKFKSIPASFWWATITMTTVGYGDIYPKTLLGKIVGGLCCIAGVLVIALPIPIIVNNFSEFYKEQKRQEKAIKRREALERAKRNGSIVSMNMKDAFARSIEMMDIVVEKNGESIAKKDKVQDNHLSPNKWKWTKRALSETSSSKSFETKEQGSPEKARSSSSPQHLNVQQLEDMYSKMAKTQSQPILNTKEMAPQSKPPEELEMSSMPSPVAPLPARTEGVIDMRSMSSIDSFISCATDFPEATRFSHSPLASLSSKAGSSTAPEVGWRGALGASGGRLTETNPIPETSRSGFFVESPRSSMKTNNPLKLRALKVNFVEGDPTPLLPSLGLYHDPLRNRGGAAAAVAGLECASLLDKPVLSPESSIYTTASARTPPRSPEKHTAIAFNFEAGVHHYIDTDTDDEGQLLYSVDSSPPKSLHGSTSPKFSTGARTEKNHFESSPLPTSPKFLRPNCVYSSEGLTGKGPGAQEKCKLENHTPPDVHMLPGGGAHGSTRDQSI

Turning to `CC[N+](CC)(CC)CC` [TEA, tetraethylammonium], on TASK-3 WT channel [1], the “inhibition at saturating TEA concentrations” value worked out at 30%. This compound also registered a maximum inhibition in assay [2] of 90%. Further, the IC50 in assay [2] (n = 4) is 11.8 ± 0.4 mM; on TASK-3/2loop2/Y99A (n = 4), 17.3 ± 1.8 mM; at TASK-3/2loop2/Y205A (n = 3), 63.9 ± 5.4 mM; against TASK-3 WT channel [3], 12.5 ± 3.4 mM. In addition, the maximal inhibition at TASK-3/2loop2/Y99A is recorded as 46%; at TASK-3/2loop2/Y205A, 59%. Further, the “sensitivity to TEA blockade” value at TASK-3/2loop2/Y99A/Y205A is “essentially insensitive”. The inhibition at 100000 µM on Kv2.1 channel was around 85%.

Values taken from article PMC6121469 (International Journal of Molecular Sciences, 2018).
